Test [1] concerns type 1 diabetes mellitus mice. Description: Random blood glucose level in streptozotocin type 1 diabetes mellitus mouse model. Format: in vivo. Particulars: 200 mg/kg at 8 a.m. and 8 p.m. everyday; compared with the normal saline group; FIG. 4. The text has this: (§1) • 1. Blood glucose test strips and blood glucose meter, from Eli Lilly and Company, USA; • 2. C57 B6/J Female mice, from Nanjing Gem Pharmaceutical Co., Ltd.; • 3. Streptozotocin, from Sigma-Aldrich Company, USA; • 4. Ultrasensitive insulin kit, from ALPCO Company, USA; • 5. Insulin antibody, from DAKO Company, USA; • 6. Glucagon antibody, from ABCAM Company, USA; and • 7. Other reagents required for immunofluorescence assay were purchased from Shanghai Sangon Technology Co., Ltd.
(§2) An 8-week-old C57B6/J female mouse was administered intraperitoneally with 200 mg/kg of streptozotocin solution. After 5 days of injection, the random blood glucose level of the mice was measured, mice with blood glucose levels higher than 20 mmol/L were selected and randomly divided into two groups for subsequent experiments.
(§3) Type 1 diabetes mellitus mouse models were administered 200 mg/kg of 6-phosphogluconic acid methyl ester (compound 1-1) or physiological saline at 8 a.m. and 8 p.m. everyday. The random blood glucose level of each mouse was measured once a day. Before the end of the experiment, the mice were fasted for 16 hours, and a small amount of peripheral blood was taken from the tail vein.

Test [2] relates to type 1 diabetes mellitus mice. Description: Insulin concentration in peripheral blood measured by ultrasensitive insulin kit. To be noted: 200 mg/kg twice daily; fasted for 16 hours; compared with the normal saline group; FIG. 6. Format: in vivo, mouse.
Description: as §1, §2, §3
The concentration of insulin in peripheral blood of mice was measured by an ultrasensitive insulin kit.

Test [3] has as its system islet β-cells. Description: Immunofluorescence assay of regeneration of islet β-cells in type 1 diabetes mellitus mice. Particulars: 200 mg/kg twice daily, compared with the normal saline group, FIG. 5. Format: in vivo, mouse.
Description: as §1, §2, §3
Immunofluorescence assay was used to measure the regeneration of islet β-cells of type 1 diabetes mellitus mice.

On to `COC(=O)[C@H](O)[C@@H](O)[C@H](O)[C@H](O)COP(=O)(O)O` [Compound 1-1, 6-phosphogluconic acid methyl ester], for which the “random blood glucose level” value in test [1] was “significantly reduced”. Besides, the “concentration of fasting insulin in peripheral blood” value in test [2] is given as “significantly increased”. Also, the “number of islet β-cells (regeneration)” value in test [3] is “significantly increased”.

For the origin of these results see patent publication US20250235472A1, “USE OF 6-PHOSPHOGLUCONIC ACID AND DERIVATIVE THEREOF IN PREPARING MEDICAMENT FOR PREVENTING OR TREATING GLYCOMETABOLISM DISORDER DISEASES” (FUDAN UNIVERSITY, priority 2022, published 2025).
